Measured values as given in US6489307B1, “Antisense compositions targeted to β1-adrenoceptor-specific mRNA and methods of use” (University of Florida, priority 1998, dated 2002).
“Also recorded” adds a separate entry of the source.

What was measured:
β2-AR = assay: β-AR density in myocardium after ischemia-reperfusion (binding assay); design: species or system Sprague-Dawley rats; details: rat, in vivo
Procedure: Membrane protein was prepared from left ventricles as previously described (Baker and Pitha, 1982). For saturation studies, 100 μg membrane protein was incubated in triplicate with ^125I-(−)iodocyanopindolol (I-CYP, NEN Life Science, 6.25-100 pM) in a total volume of 250 μl containing 50 mM Tris-HCl (pH 7.4), 5 mM MgCl2 at 36° C. for 60 min. The nonspecific and β2-adrenoceptor binding were determined in the presence of 1 μM (±)-alprenolol and […] (RBI), respectively. Then the reaction mixture was passed through Whatman GF/B glass filter using Brandel harvester and the radioactivity was counted for one min.

[1] = test system: spontaneously hypertensive rats; assay: Left ventricular hypertrophy after 2-month treatment; assay type: in vivo, rat (SHR); details: end of 2-month treatment; vs controls
Procedure: Adult spontaneously hypertensive rats (300-350 g) were treated with β1-AS-ODNs for more than 2 months. The blood pressure was reduced by 20-30 mmHg persistently throughout the treatment period (FIG. 11). Control animals receiving saline or INV-ODNs had no change in blood pressure. At the end of a 2-month treatment, the hearts were dissected and weighed.

[2] = test system: isolated perfused SHR hearts; assay: Isolated perfused SHR hearts (Langendorff), response to isoproterenol; assay type: in vivo, rat (SHR); details: 48 hr after 1 mg/kg; vs inverted ODN
Procedure: 48 hr after injection of 1 mg/kg β1-AS-ODN (n=9) or inverted ODN (n=6), SHRs were anesthetized and killed. Hearts were quickly removed and perfused via the aorta with oxygenated Krebs buffer (118 mmol/L NaCl, 18.75 mmol/L NaHCO3 1.2 mmol/L KH2PO4, 4.7 mmol/L KCl, 1.2 mmol/L MgSO4, 1.25 mmol/L CaCl2, 11.1 mmol/L glucose, and 0.01 mmol/L EDTA) at a constant flow of 7.0 mL/min. at 36° C. Coronary perfusion pressure was measured via a catheter placed proximal to the aorta and connected to a pressure transducer (Gould Staham P23ID, Eastlake, Ohio). A latex balloon filled with water and connected to the pressure transducer was inserted into the left ventricle through the left atrium to measure left ventricular end-diastolic pressure (LVEDP), left ventricular systolic pressure (LVSP), and developed left ventricular pressure (dLVP) (dLVP=LVSP−LVEDP). LVEDP during equilibration was set at 5 to 7 mm Hg. Coronary perfusion pressure, LVEDP, and LVSP were recorded continuously on a 4-channel recorder (Astro-Med, West Warwick, R.I.). […]
Forty-eight hr after injection of 1 mg/kg β1-AS-ODN (n=9) or inverted-ODN (n=6), SHR were anesthetized and sacrificed. […] Coronary perfusion pressure (CPP) was measured via a catheter placed proximal to the aorta and connected to a pressure transducer (Gould Statham P23ID). […] CPP, LVEDP and LVSP were continuously recorded on a 4-channel recorder (Astro-Med). […]

“5′-CCGCGCCCATGCCGA-3′ (phosphorothioate backbone, further chemistry not given here) [β1-AS-ODN, 15-mer antisense ODN targeted to the AUG start codon of rat β1-AR mRNA]” was tested, and the “β2-AR density in ischemic-reperfused myocardium” value (β2-AR) was “no change”, the “left ventricular hypertrophy (LV/BW)” value [1] was “significantly reduced” and the “HR response to ISO” value [2] was “not significantly decreased”. The “dLVP-ISO dose-response curve (positive inotropic effect of ISO)” value [2] was “significantly shifted downward; also recorded: significantly shifted down”.
